# Test results as given in patent publication US20180008573A1, “METHODS AND COMPOSITIONS FOR REDUCING DAMAGE ASSOCIATED WITH OXIDATIVE PHOSPHORYLATION” (USANA Health Sciences, Inc., priority 2016, published 2018).
# Marks after values point to notes of the source that are not given here.
# Columns and labels:
# NF-κB reporter cells = test: Live cell multiplex assay in the NF-κB antagonist assay; type: cell-based, human
# Procedure: A vehicle control was prepared.
# C. elegans strain CB5586 = test: C. elegans phenotypic lifespan screening (Kaplan-Meier, Log-Rank, Fisher's Exact Test); type: in vivo; settings: for restricted mean lifespan, # of Days: DMSO control 13.23
# Procedure: Dilutions of the test formulations were applied to individual populations of C. elegans and the lifespan of each population was monitored. Any changes in the lifespan of an individual population compared to a control population were recorded and correlated to the respective test formulation (N356 or N357) and the respective dilution (0.1 mg/ml, 1 mg/ml, and 10 mg/ml).
# The […] and N357 formulations were each prepared as individual 100 mg/ml stock solutions in dimethyl sulfoxide (DMSO). Serial dilutions of each stock solution were then prepared at 0.1 mg/ml, 1 mg/ml, and 10 mg/ml in DMSO. Control solutions of DMSO only were also prepared. Synchronous aged adult populations of C.elegans strain CB5586 worms were prepared. The CB5586 strain comprises a pharyngeal GFP (green fluorescent protein) tag and a mutation in the bus-5 gene. The pharyngeal GFP tag allows for fluorescent images of the worm populations to be taken. The mutation in the bus-5 gene causes the loss of normal cuticle antigens that permits the cuticle of the worms to become permeable to the test formulations and allow direct uptake of the test formulations to avoid interaction of the test formulations with protective mechanisms of the gut channel. Each serial dilution of each test formulation was added to a separate population of the prepared worms. The control solutions were also added to separate populations of the prepared worms. The populations of the prepared worms were then maintained on standard nematode growth media (NGM) agar plates at 20° C. with sufficient food (Escherichia coli strain OP-50).
# Each worm population was then monitored by fluorescent imaging to determine the number of living and dead worms as a function of time. The fluorescent imaging was analyzed by software that recognized and counted worms based on their fluorescent intensity compared to background fluorescence. […] The ability to distinguish between living and dead worms allowed the number of living worms and cumulative number of dead worms to be monitored against time. Worm populations from a selection of fluorescent images were manually checked to verify that the software had accurately counted the number of living and dead worms.
# The counts of the living and dead worms as a function of time were then analyzed for each of the worm populations and used to prepare Kaplan-Meier survival curves and associated statistics for each of the worm populations. […] The median lifespan is shown as the length of time after the last mitotic division that 50% of the test population remains viable when compared to the control population. The maximum lifespan extension is shown as the length of time after the last mitotic division that 5% of the test population remains viable when compared to the control population.
# The counts of the living and dead worms as a function of time and the Kaplan-Meier survival curves and the associated statistics were then analyzed for each of the worm populations. The analysis included determining mean and median lifespan. The analysis included a non-parametric test, the Log-Rank test, that compares two survival functions for the overall lifespan assay and provides a reliable p-value summarizing the whole experiment. The analysis also included Fisher's Exact Test that calculated the significance of survival function comparisons at multiple specific time points throughout the experiment, rather than for the overall lifespan. The results of the analysis are shown below in Tables 10-17.
# Phenotypic screening was carried out as described in EXAMPLE 2 for various individual compounds of the N357 formulation. […] Alpha lipoic acid was sourced from PureBulk USA as a racemic mix of R and S stereoisomers and was assigned a sample number of N198. Hesperidin was sourced from Sigma Aldrich at ≧80% purity and was assigned a sample number of N347. […]
# Nrf2 [1] = target: T1, Nrf2 (Homo sapiens, UniProt Q16236); test: Nrf2 agonist reporter assay (native receptor, ARE-luciferase, CV1 cells); type: cell-based; design: comprising either the native receptor (Nrf2 and NF-κB); expressed in transfected cells; host or cells: CV1
# T1 sequence (Q16236 1-605): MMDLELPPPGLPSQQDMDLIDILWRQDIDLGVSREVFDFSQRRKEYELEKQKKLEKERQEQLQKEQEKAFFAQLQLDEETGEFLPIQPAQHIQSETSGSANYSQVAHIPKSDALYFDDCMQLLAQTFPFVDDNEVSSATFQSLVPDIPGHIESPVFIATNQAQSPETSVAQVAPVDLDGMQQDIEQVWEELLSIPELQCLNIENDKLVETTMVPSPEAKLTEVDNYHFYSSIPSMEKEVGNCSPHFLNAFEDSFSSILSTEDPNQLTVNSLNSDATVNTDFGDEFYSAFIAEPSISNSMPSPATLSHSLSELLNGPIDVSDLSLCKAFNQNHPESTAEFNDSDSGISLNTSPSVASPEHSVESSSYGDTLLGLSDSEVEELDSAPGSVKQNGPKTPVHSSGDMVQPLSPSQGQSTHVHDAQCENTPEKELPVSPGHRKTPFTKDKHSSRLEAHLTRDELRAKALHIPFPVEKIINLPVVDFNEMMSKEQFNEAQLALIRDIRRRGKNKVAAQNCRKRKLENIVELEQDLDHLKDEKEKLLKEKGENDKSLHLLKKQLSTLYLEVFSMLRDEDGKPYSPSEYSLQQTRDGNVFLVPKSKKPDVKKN
# human NF-κB = test: NF-κB antagonist reporter assay (NF-κB GRE-luciferase, HEK293 cells); type: cell-based;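 further: reporter cells carry native NF-κB receptor with firefly luciferase under upstream response elements, with a vehicle control included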
# Nrf2 [2] = target: T1, Nrf2; test: Nrf2 signaling fluorescent reporter assay in human retinal epithelial cell line; type: cell-based; design: host or cells: human retinal epithelial cell line
# human PPARγ = target: T2, human PPARγ (Homo sapiens, UniProt P37231); test: PPARγ agonist reporter assay (Gal4 hybrid receptor, luciferase, CHO cells); type: cell-based
# T2 construct: expressed in transfected cells; host or cells: CHO
# T2 sequence (P37231 238-503 limits assumed): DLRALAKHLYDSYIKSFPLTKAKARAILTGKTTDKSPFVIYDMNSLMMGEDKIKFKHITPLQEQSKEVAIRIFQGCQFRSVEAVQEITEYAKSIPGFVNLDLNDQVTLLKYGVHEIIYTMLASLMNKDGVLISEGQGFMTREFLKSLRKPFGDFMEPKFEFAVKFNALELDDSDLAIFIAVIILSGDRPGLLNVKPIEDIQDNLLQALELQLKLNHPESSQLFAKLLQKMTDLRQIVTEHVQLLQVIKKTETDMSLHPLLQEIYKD
# human PPARα = target: T3, human PPARα (Homo sapiens, UniProt Q07869); test: PPARα agonist reporter assay (Gal4 hybrid receptor, luciferase, CHO cells); type: cell-based
# T3 construct: expressed in transfected cells; host or cells: CHO
# T3 sequence (Q07869 239-466 limits assumed): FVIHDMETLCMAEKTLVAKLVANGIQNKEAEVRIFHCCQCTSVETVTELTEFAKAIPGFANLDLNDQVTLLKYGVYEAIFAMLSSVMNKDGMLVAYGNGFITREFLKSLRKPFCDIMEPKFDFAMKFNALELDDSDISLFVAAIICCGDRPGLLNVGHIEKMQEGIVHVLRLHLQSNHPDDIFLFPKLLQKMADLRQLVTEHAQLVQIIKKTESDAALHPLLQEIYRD
# human PPARδ = target: T4, human PPARδ (Homo sapiens, UniProt Q03181); test: PPARδ agonist reporter assay (Gal4 hybrid receptor, luciferase, CHO cells); type: cell-based
# T4 construct: expressed in transfected cells; host or cells: CHO
# T4 sequence (Q03181 211-439 limits assumed): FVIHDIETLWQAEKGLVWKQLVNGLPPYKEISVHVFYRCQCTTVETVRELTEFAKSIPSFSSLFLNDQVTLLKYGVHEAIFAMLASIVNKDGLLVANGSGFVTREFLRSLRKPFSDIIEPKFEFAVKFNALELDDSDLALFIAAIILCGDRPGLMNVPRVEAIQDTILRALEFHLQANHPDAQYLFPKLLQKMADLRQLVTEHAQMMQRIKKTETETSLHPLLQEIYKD
smiles,measurement,setting,value
"O=c1c(O)c(-c2ccc(O)c(O)c2)oc2cc(O)cc(O)c12 [Quercetin, 2-(3,4-dihydroxyphenyl)-3,5,7-trihydroxy-4H-chromen-4-one]",NF-κB % Live Cell,NF-κB reporter cells; 0.28 μg/ml active ingredient,103%
same,NF-κB % Live Cell,NF-κB reporter cells; 0.84 μg/ml active ingredient,99%
same,NF-κB % Live Cell,NF-κB reporter cells; 2.5 μg/ml active ingredient,103%
same,NF-κB % Live Cell,NF-κB reporter cells; 23 μg/ml active ingredient,97%
same,NF-κB % Live Cell,NF-κB reporter cells; 68 μg/ml active ingredient,77*** %
same,compound-induced cytotoxicity,NF-κB reporter cells; at the concentrations tested,some evidence of compounded-induced cytotoxicity
same,Statistically Significant Result (lifespan vs. DMSO control),C. elegans strain CB5586; 0.1 mg/ml,Statistically significant decrease
same,decrease of lifespan,C. elegans strain CB5586; 0.1 mg/ml,about 9%
same,population age in days at 25% mortality,C. elegans strain CB5586; 0.1 mg/ml,9 days
same,population age in days at 50% mortality,C. elegans strain CB5586; 0.1 mg/ml,11 days
same,population age in days at 75% mortality,C. elegans strain CB5586; 0.1 mg/ml,14 days
same,population age in days at 90% mortality,C. elegans strain CB5586; 0.1 mg/ml,18 days
same,effect on chronological lifespan,C. elegans strain CB5586; 0.1 mg/ml and 10 mg/ml tested,significant negative effect on chronological lifespan at certain tested concentrations
same,% Change in Mean Lifespan,C. elegans strain CB5586; 0.1 mg/ml vs. DMSO control,−9%
same,"restricted mean lifespan, # of Days",C. elegans strain CB5586; 0.1 mg/ml,12.17 days
same,Statistically Significant Result (lifespan vs. DMSO control),C. elegans strain CB5586; 10 mg/ml,No statistical difference
same,population age in days at 25% mortality,C. elegans strain CB5586; 10 mg/ml,9 days
same,population age in days at 50% mortality,C. elegans strain CB5586; 10 mg/ml,14 days
same,population age in days at 75% mortality,C. elegans strain CB5586; 10 mg/ml,16 days
same,"restricted mean lifespan, # of Days",C. elegans strain CB5586; 10 mg/ml,12.54 days
same,agonist activity against human Nrf2,Nrf2 [1]; at the concentrations tested,low-level agonist activity
same,NF-κB % Inhibition,human NF-κB; 0.28 μg/ml active ingredient,−12%
same,NF-κB % Inhibition,human NF-κB; 0.84 μg/ml active ingredient,−6%
same,NF-κB % Inhibition,human NF-κB; 2.5 μg/ml active ingredient,−12%
same,NF-κB % Inhibition,human NF-κB; 23 μg/ml active ingredient,58** %
same,NF-κB % Inhibition,human NF-κB; 68 μg/ml active ingredient,85** %
same,antagonist activity against human NF-κB,human NF-κB; at the concentrations tested,very low-level antagonist activity
same,activation of Nrf2,Nrf2 [2]; 10 μM and 1 μM against a control,"demonstrated activation of Nrf2 at both 10 μM and 1 μM, with more activation at the 1 μM concentration"
same,minimum inducing concentration (Nrf2),Nrf2 [2]; human retinal epithelial cell line,0.55 µM
"COc1ccc([C@@H]2CC(=O)c3c(O)cc(O)cc3O2)cc1O [Hesperetin, (S)-2,3-Dihydro-5,7-dihydroxy-2-(3-hydroxy-4-methoxyphenyl)-4H-1-benzopyran-4-one]",PPARγ Fold-Activation,human PPARγ; 0.043 μg/ml active ingredient,1.0 fold
same,PPARγ Fold-Activation,human PPARγ; 0.389 μg/ml active ingredient,1.1 fold
same,PPARγ Fold-Activation,human PPARγ; 1.167 μg/ml active ingredient,1.1 fold
same,PPARγ Fold-Activation,human PPARγ; 3.5 μg/ml active ingredient,0.55 fold
same,NF-κB % Live Cell,NF-κB reporter cells; 0.043 μg/ml active ingredient,98%
same,NF-κB % Live Cell,NF-κB reporter cells; 0.389 μg/ml active ingredient,99%
same,NF-κB % Live Cell,NF-κB reporter cells; 1.167 μg/ml active ingredient,98%
same,NF-κB % Live Cell,NF-κB reporter cells; 3.5 μg/ml active ingredient,96%
same,PPARα Fold-Activation,human PPARα; 0.043 μg/ml active ingredient,1.4 fold
same,PPARα Fold-Activation,human PPARα; 0.389 μg/ml active ingredient,1.2 fold
same,PPARα Fold-Activation,human PPARα; 1.167 μg/ml active ingredient,1.0 fold
same,PPARα Fold-Activation,human PPARα; 3.5 μg/ml active ingredient,0.79 fold
same,Nrf2 Fold-Activation,Nrf2 [1]; 0.043 μg/ml active ingredient,1.4 fold
same,Nrf2 Fold-Activation,Nrf2 [1]; 0.389 μg/ml active ingredient,1.3 fold
same,Nrf2 Fold-Activation,Nrf2 [1]; 1.167 μg/ml active ingredient,1.5 fold
same,Nrf2 Fold-Activation,Nrf2 [1]; 3.5 μg/ml active ingredient,0.94 fold
same,NF-κB % Inhibition,human NF-κB; 0.043 μg/ml active ingredient,−11%
same,NF-κB % Inhibition,human NF-κB; 0.389 μg/ml active ingredient,−2.1%
same,NF-κB % Inhibition,human NF-κB; 1.167 μg/ml active ingredient,14%
same,NF-κB % Inhibition,human NF-κB; 3.5 μg/ml active ingredient,39%
same,PPARδ Fold-Activation,human PPARδ; 0.043 μg/ml active ingredient,1.1 fold
same,PPARδ Fold-Activation,human PPARδ; 0.389 μg/ml active ingredient,1.0 fold
same,PPARδ Fold-Activation,human PPARδ; 1.167 μg/ml active ingredient,1.1 fold
same,PPARδ Fold-Activation,human PPARδ; 3.5 μg/ml active ingredient,0.89 fold
